Like-named read-outs stand apart in the source and are kept apart here.
Assays:
[1] = tested on: HCV replicon in Huh7 cells; experiment: HCV replicon cell-based assay; set-up: species or system HCV strain 1B; details: Hepatitis C virus, Huh-7, 96 h, HCV replicon, 4 days, read-out: EC50 range
How it was run: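 Huh7 cells carrying a genotype 1b subgenomic replicon (NS3-NS5B, neo) treated 4 days at 37° C with compound (0.5% DMSO final). NS3 protease activity read in lysates with 10 μM FRET peptide (340/490 nm, kinetic), giving EC50. Confirmed by Taqman qRT-PCR of HCV RNA and a Renilla luciferase replicon.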

[2] = target: T1, HCV NS3/4A protease complex (UniProt P27958, C1454S/C1711G, species not given); experiment: Recombinant HCV NS3/4A protease complex FRET peptide assay (strain not stated); type: biochemical
T1 construct: fused on or other part: Three-lysine solubilising tail at the C-terminus of NS4A

[3] = HCV NS3/4A protease enzyme assay, read-out: IC50 range

Row | SMILES | EC50 [1] | IC50 [2, 3] | IC50 ([2]; read-out: IC50 range, HCV NS3/4A protease enzyme assay)
1 | C=C[C@@H]1C[C@]1(NC(=O)[C@@H]1C[C@@H](OC(=O)Nc2cc(C(F)(F)F)ccc2-n2cccn2)CN1C(=O)[C@@H](NC(=O)OC(C)(C)C)C(C)(C)C)C(=O)NS(=O)(=O)C1CC1 [Compound 100, BocNH-P3(t-BuGly)-P2(Hyp(O—CO(NH—(5-trifluoromethyl-2-pyrazol-1-yl-phenyl))))-P1(1R,2S VinylAcca)—CONHSO2Cyclopropane] | < 100 nM | < 100 nM | 
2 | C=CC1C[C@]1(NC(=O)[C@@H]1C[C@@H](OC(=O)N[C@@H]2C[C@H]2c2ccccc2)CN1C(=O)[C@@H](NC(=O)OC(C)(C)C)C(C)(C)C)C(=O)NS(=O)(=O)C1CC1 (stereo partly drawn) [Compound 3, BocNH-P3(t-BuGly)-P(Hyp(O—CO(NH-2(trans)-phenylcyclopropyl)))-P1(1R,2S VinylAcca)—CONHSO2Cyclopropane] | 1000 to 10000 nM | < 100 nM | 
3 | C=CC1C[C@]1(NC(=O)[C@@H]1C[C@@H](OC(=O)Nc2ccccc2C(=O)O)CN1C(=O)[C@@H](NC(=O)OC(C)(C)C)C(C)(C)C)C(=O)NS(=O)(=O)C1CC1 (stereo partly drawn) [Compound 69, BocNH-P3(t-BuGly)-P2(Hyp(O—CO(NH—(2-benzoic acid))))-P1(1R,2S VinylAcca)—CONHSO2Cyclopropane] | > 10000 nM | 100 to 1000 nM | 
4 | C=CC1C[C@]1(NC(=O)[C@@H]1C[C@@H](OC(=O)Nc2cc(C)ccc2-n2cccc2)CN1C(=O)[C@@H](NC(=O)OC(C)(C)C)C(C)(C)C)C(=O)NS(=O)(=O)C1CC1 (stereo partly drawn) [Compound 83, BocNH-P3(t-BuGly)-P2(Hyp(O—CO(NH—(5-Methyl-2-pyrrol-1-yl-phenyl))))-P1(1R,2S VinylAcca)—CONHSO2Cyclopropane] | < 100 nM | < 100 nM | 
5 | C=CC1C[C@]1(NC(=O)[C@@H]1C[C@@H](OC(=O)Nc2cc(Cl)cc(Cl)c2)CN1C(=O)[C@@H](NC(=O)OC(C)(C)C)C(C)(C)C)C(=O)NS(=O)(=O)C1CC1 (stereo partly drawn) [Compound 23, BocNH-P3(t-BuGly)-P2(Hyp(O—CO(NH—(3,5-dichloro-phenyl))))-P1(1R,2S VinylAcca)—CONHSO2Cyclopropane] | 100 to 1000 nM |  | < 100 nM
6 | C=CC1C[C@]1(NC(=O)[C@@H]1C[C@@H](OC(=O)NCc2ccccc2Cl)CN1C(=O)[C@@H](NC(=O)OC(C)(C)C)C(C)(C)C)C(=O)NS(=O)(=O)C1CC1 (stereo partly drawn) [Compound 26, BocNH-P3(t-BuGly)-P2(Hyp(O—CO(NH—(2-chloro-benzyl))))-P1(1R,2S VinylAcca)—CONHSO2Cyclopropane] | 1000 to 10000 nM | < 100 nM | 
7 | C=CC1C[C@]1(NC(=O)[C@@H]1C[C@@H](OC(=O)Nc2cc(F)ccc2-n2cccn2)CN1C(=O)[C@@H](NC(=O)OC(C)(C)C)C(C)(C)C)C(=O)NS(=O)(=O)C1CC1 (stereo partly drawn) [Compound 99, BocNH-P3(t-BuGly)-P2(Hyp(O—CO(NH—(5-Fluoro-2-pyrazol-1-yl-phenyl))))-P1(1R,2S VinylAcca)—CONHSO2Cyclopropane] | < 100 nM | < 100 nM | 
8 | C=CC1C[C@]1(NC(=O)[C@@H]1C[C@@H](OC(=O)Nc2ccccc2OCC)CN1C(=O)[C@@H](NC(=O)OC(C)(C)C)C(C)(C)C)C(=O)NS(=O)(=O)C1CC1 (stereo partly drawn) [Compound 56, BocNH-P3(t-BuGly)-P2(Hyp(O—CO(NH—(2-ethoxy-phenyl))))-P1(1R,2S VinylAcca)—CONHSO2Cyclopropane] | 100 to 1000 nM | < 100 nM | 
9 | C=CC1C[C@]1(NC(=O)[C@@H]1C[C@@H](OC(=O)Nc2c(Cl)cccc2Cl)CN1C(=O)[C@@H](NC(=O)OC(C)(C)C)C(C)(C)C)C(=O)NS(=O)(=O)C1CC1 (stereo partly drawn) [Compound 54, BocNH-P3(t-BuGly)-P2(Hyp(O—CO(NH—(2,6-dichloro-phenyl))))-P1(1R,2S VinylAcca)—CONHSO2Cyclopropane] | 1000 to 10000 nM | 100 to 1000 nM | 
10 | C=CC1C[C@]1(NC(=O)[C@@H]1C[C@@H](OC(=O)NCc2cccc(F)c2)CN1C(=O)[C@@H](NC(=O)OC(C)(C)C)C(C)(C)C)C(=O)NS(=O)(=O)C1CC1 (stereo partly drawn) [Compound 24, BocNH-P3(t-BuGly)-P2(Hyp(O—CO(NH—(3-fluoro-benzyl))))-P1(1R,2S VinylAcca)—CONHSO2Cyclopropane] | > 10000 nM | 100 to 1000 nM | 
11 | C=CC1C[C@]1(NC(=O)[C@@H]1C[C@@H](OC(=O)Nc2ccccc2Oc2ccccc2)CN1C(=O)[C@@H](NC(=O)OC(C)(C)C)C(C)(C)C)C(=O)NS(=O)(=O)C1CC1 (stereo partly drawn) [Compound 67, BocNH-P3(t-BuGly)-P2(Hyp(O—CO(NH—(2-phenoxy-phenyl))))-P1(1R,2S VinylAcca)—CONHSO2Cyclopropane] | 100 to 1000 nM | < 100 nM | 
12 | C=CC1C[C@]1(NC(=O)[C@@H]1C[C@@H](OC(=O)Nc2ccccc2C(=O)c2ccccc2)CN1C(=O)[C@@H](NC(=O)OC(C)(C)C)C(C)(C)C)C(=O)NS(=O)(=O)C1CC1 (stereo partly drawn) [Compound 74, BocNH-P3(t-BuGly)-P2(Hyp(O—CO(NH—(2-benzophenone))))-P1(1R,2S VinylAcca)—CONHSO2Cyclopropane] | 100 to 1000 nM | < 100 nM | 
13 | C=CC1C[C@]1(NC(=O)[C@@H]1C[C@@H](OC(=O)Nc2ncccc2C(=O)OCC)CN1C(=O)[C@@H](NC(=O)OC(C)(C)C)C(C)(C)C)C(=O)NS(=O)(=O)C1CC1 (stereo partly drawn) [Compound 72, BocNH-P3(t-BuGly)-P2(Hyp(O—CO(NH-2-(nicotinic acid ethyl ester))))-P1(1R,2S VinylAcca)—CONHSO2Cyclopropane] | 1000 to 10000 nM | < 100 nM | 
14 | C=CC1C[C@]1(NC(=O)[C@@H]1C[C@@H](OC(=O)N(C)c2ccccc2)CN1C(=O)[C@@H](NC(=O)OC(C)(C)C)C(C)(C)C)C(=O)NS(=O)(=O)C1CC1 (stereo partly drawn) [Compound 1, BocNH-P3(t-BuGly)-P2(Hyp(O—CO(N-methyl,N-phenyl)))-P1(1R,2S VinylAcca)—CONHSO2Cyclopropane] | 1000 to 10000 nM | 100 to 1000 nM | 
15 | C=CC1C[C@]1(NC(=O)[C@@H]1C[C@@H](OC(=O)Nc2ccccc2OC)CN1C(=O)[C@@H](NC(=O)OC(C)(C)C)C(C)(C)C)C(=O)NS(=O)(=O)C1CC1 (stereo partly drawn) [Compound 55, BocNH-P3(t-BuGly)-P2(Hyp(O—CO(NH—(2-methoxy-phenyl))))-P1(1R,2S VinylAcca)—CONHSO2Cyclopropane] | 100 to 1000 nM | < 100 nM | 
16 | C=CC1C[C@]1(NC(=O)[C@@H]1C[C@@H](OC(=O)Nc2ccc(F)c(F)c2F)CN1C(=O)[C@@H](NC(=O)OC(C)(C)C)C(C)(C)C)C(=O)NS(=O)(=O)C1CC1 (stereo partly drawn) [Compound 16, BocNH-P3(t-BuGly)-P2(Hyp(O—CO(NH—(2,3,4-trifluoro-phenyl))))-P1(1R,2S VinylAcca)—CONHSO2Cyclopropane] | 1000 to 10000 nM | 100 to 1000 nM | 
17 | C=CC1C[C@]1(NC(=O)[C@@H]1C[C@@H](OC(=O)Nc2ccccc2C(=O)OC(C)C)CN1C(=O)[C@@H](NC(=O)OC(C)(C)C)C(C)(C)C)C(=O)NS(=O)(=O)C1CC1 (stereo partly drawn) [Compound 48, BocNH-P3(t-BuGly)-P2(Hyp(O—CO(NH—(2-benzoic acid isopropyl ester))))-P1(1R,2S VinylAcca)—CONHSO2Cyclopropane] | 100 to 1000 nM | < 100 nM | 
18 | C=CC1C[C@]1(NC(=O)[C@@H]1C[C@@H](OC(=O)N2CCCCC2)CN1C(=O)[C@@H](NC(=O)OC(C)(C)C)C(C)(C)C)C(=O)NS(=O)(=O)C1CC1 (stereo partly drawn) [Compound 14, BocNH-P3(t-BuGly)-P2(Hyp(O—CO(N,N-(piperdino))))-P1(1R,2S VinylAcca)—CONHSO2Cyclopropane] | 1000 to 10000 nM | 100 to 1000 nM | 
